Measurements from article PMC9103758 (International Journal of Molecular Sciences, 2022).
“Also recorded” adds a separate entry of the source.

How the values were obtained:
NIH-3T3 cells = test: Cell viability (MTS/MTT) in NIH-3T3 cells; format: cell-based; details: 24 h, up to/at 30 μM
Experimental: […]. (A) Structure of VI-116. (B) Representative YFP fluorescence traces. The inhibitory effects of VI-116 on VRAC activity were determined using YFP fluorescence assay in LN215 cells. VRAC was activated by application of […] solution for 5 min. (C) Summary of VRAC dose-response (mean ± S.E., n = 4). (D) Summary of VRAC dose−response with 10% FBS (mean ± S.E., n = 4). […].
NIH-3T3 cells were plated on 96-well microplates. After 24 h incubation, cells were treated with VI-116 or DCPIB and incubated for 24 h. The culture medium and the compounds were changed every 12 h. To assess cell proliferation, the cells were incubated with MTS for 1 h. The soluble formazan produced by the cellular reduction of MTS was quantified by measuring the absorbance at 490 nm with an Infinite M200 (Tecan, Grödig, Austria) microplate reader. MTS assay was performed using a CellTiter 96 Aqueous One Solution Cell Proliferation Assay kit (Promega, Madison, WI, USA).

[1] = test system: ATP-induced intracellular calcium signaling in FRT cells; test: Intracellular calcium measurement (Fluo-4) in FRT cells; format: cell-based, rat; details: dose-dependent, 100 μM ATP
Experimental: (§1) (A) Representative Fluo4 fluorescence traces from 3 independent experiments in FRT cells. […] (B,C) Representative apical membrane currents from 3–4 independent experiments in FRT cells expressing human ANO1. […] (D) Representative YFP fluorescence traces in FRT cells expressing human ANO2. […] (E) Representative Fluo4 fluorescence traces from 3 independent experiments in FRT cells. Cells were pretreated with DCPIB for 10 min followed by application of 100 μM ATP. (F) Representative apical membrane currents in FRT cells expressing human ANO1.
FRT cells were plated on 96-well black-walled microplates and loaded with Fluo-4 NW according to the manufacturer’s protocol (Invitrogen, Carlsbad, CA, USA). […] The 96-well plates were transferred to a plate reader for fluorescence assay.

ANO1 = molecular target: T1, ANO1 (Homo sapiens, UniProt Q5XXA6, DEL476-501); test: Apical membrane current of ANO1 in FRT cells expressing human ANO1; format: cell-based; details: 3 μM Eact
T1 construct: expressed in transfected cells; host or cells: Fisher rat thyroid (FRT) cells; The YFP assay uses FRT-ANO1-YFP cells, which also carry the halide sensor
T1 sequence (Q5XXA6 with tags, fused parts or gaps isoform Q5XXA6-5 DEL539-564): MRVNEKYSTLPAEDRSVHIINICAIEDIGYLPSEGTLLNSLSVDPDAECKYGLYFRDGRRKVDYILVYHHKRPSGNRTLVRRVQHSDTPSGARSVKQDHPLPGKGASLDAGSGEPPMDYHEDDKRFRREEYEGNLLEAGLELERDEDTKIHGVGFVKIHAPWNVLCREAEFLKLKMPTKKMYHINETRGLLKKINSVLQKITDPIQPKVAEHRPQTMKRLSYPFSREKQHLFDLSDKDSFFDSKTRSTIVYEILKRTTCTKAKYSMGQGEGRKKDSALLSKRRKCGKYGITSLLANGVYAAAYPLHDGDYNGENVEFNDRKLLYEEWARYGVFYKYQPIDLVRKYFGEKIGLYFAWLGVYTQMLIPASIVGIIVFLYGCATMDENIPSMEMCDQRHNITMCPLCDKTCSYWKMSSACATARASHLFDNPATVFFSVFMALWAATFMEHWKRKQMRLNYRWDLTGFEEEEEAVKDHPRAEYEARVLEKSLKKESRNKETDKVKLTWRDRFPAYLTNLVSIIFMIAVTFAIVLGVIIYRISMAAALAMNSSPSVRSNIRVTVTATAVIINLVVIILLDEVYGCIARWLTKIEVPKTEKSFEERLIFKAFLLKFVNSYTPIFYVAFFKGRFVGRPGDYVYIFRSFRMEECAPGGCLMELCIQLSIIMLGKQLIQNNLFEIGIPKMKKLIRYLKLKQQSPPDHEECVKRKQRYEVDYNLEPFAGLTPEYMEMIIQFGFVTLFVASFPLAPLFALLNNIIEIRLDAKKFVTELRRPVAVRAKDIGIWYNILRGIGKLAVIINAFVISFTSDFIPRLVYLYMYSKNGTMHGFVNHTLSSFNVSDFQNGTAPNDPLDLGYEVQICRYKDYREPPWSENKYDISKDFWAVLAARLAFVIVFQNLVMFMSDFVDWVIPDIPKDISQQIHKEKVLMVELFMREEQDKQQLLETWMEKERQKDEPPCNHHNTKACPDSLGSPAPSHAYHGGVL
Experimental: as §1
(§2) Snapwell inserts containing ANO1(abc) or CFTR-expressing FRT cells were mounted in Ussing chambers (Physiological Instruments, San Diego, CA). The basolateral hemichamber was filled with buffer solution (in mM): 120 NaCl, 5 KCl, 1 MgCl2, 1 CaCl2, 10 D-glucose, 2.5 HEPES, and 25 NaHCO3 (pH 7.4). The apical hemichamber was filled with buffer solution (in mM): 60 NaCl, 60 Na-gluconate, 5 KCl, 1 MgCl2, 1 CaCl2, 10 D-glucose, 2.5 HEPES, and 25 NaHCO3 (pH 7.4). FRT cells were bathed for a 10 min stabilization period and gassed with 5% CO2 and 95% O2 at 37 °C. The apical membrane current was recorded with an EVC4000 Multi-Channel V/I Clamp (World Precision Instruments, Sarasota, FL, USA) and a PowerLab 4/35 (AD Instruments, Castle Hill, Australia).

human CFTR = molecular target: T2, human CFTR (Homo sapiens, UniProt P13569); test: Apical membrane current of CFTR in FRT cells expressing human CFTR; format: cell-based; details: apical membrane current, FRT cells expressing human CFTR, 20 μM forskolin, n = 5; read-out: CFTR chloride channel IC50
T2 construct: expressed in transfected cells; host or cells: Fisher rat thyroid (FRT) cells
T2 sequence (P13569 whole entry): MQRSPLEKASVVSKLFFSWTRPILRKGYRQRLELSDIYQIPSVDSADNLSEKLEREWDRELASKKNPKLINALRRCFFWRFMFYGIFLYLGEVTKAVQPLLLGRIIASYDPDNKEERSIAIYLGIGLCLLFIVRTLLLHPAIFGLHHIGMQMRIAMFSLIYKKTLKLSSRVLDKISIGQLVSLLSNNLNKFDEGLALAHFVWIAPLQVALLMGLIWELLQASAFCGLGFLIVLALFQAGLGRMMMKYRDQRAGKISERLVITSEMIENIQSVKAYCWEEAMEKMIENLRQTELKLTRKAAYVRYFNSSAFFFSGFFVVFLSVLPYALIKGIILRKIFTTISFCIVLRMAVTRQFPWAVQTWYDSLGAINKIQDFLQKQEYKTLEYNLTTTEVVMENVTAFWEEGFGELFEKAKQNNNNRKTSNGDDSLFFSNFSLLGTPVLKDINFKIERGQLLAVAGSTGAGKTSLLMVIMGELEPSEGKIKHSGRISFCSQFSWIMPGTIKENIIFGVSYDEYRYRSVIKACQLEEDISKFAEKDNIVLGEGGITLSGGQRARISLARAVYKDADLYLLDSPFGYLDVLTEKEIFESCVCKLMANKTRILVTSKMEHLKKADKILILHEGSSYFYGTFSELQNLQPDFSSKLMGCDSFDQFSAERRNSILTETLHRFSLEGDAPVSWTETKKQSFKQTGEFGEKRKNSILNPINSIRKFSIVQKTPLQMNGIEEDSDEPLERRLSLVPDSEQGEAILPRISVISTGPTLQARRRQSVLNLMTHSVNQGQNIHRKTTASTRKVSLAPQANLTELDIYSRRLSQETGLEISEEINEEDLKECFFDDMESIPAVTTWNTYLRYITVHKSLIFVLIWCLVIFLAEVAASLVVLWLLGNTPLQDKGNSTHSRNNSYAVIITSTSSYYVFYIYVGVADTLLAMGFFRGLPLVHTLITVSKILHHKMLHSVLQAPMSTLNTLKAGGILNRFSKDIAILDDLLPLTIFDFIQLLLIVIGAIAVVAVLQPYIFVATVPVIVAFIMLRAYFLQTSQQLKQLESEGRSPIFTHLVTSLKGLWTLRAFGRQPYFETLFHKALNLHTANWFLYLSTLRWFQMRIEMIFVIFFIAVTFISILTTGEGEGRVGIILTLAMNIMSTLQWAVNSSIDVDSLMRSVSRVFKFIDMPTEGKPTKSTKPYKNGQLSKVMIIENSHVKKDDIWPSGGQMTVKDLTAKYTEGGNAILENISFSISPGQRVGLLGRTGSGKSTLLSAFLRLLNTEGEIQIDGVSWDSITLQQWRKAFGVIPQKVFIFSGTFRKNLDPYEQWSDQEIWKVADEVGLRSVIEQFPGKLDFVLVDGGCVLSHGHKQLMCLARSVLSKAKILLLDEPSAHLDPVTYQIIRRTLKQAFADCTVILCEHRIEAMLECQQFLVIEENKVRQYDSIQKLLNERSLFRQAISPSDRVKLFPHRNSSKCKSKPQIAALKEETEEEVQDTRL
Excerpt: […]. (C) Summary of dose-response (mean ± S.E., n = 5). […]. (F) Summary of dose−response (mean ± S.E., n = 6).
as §2

hERG K+ channel = molecular target: T3, hERG K+ channel (Homo sapiens, UniProt Q12809); test: FluxOR thallium flux assay in HEK293T cells expressing hERG; format: cell-based
T3 construct: expressed in transfected cells; called HEK293
T3 sequence (Q12809 whole entry): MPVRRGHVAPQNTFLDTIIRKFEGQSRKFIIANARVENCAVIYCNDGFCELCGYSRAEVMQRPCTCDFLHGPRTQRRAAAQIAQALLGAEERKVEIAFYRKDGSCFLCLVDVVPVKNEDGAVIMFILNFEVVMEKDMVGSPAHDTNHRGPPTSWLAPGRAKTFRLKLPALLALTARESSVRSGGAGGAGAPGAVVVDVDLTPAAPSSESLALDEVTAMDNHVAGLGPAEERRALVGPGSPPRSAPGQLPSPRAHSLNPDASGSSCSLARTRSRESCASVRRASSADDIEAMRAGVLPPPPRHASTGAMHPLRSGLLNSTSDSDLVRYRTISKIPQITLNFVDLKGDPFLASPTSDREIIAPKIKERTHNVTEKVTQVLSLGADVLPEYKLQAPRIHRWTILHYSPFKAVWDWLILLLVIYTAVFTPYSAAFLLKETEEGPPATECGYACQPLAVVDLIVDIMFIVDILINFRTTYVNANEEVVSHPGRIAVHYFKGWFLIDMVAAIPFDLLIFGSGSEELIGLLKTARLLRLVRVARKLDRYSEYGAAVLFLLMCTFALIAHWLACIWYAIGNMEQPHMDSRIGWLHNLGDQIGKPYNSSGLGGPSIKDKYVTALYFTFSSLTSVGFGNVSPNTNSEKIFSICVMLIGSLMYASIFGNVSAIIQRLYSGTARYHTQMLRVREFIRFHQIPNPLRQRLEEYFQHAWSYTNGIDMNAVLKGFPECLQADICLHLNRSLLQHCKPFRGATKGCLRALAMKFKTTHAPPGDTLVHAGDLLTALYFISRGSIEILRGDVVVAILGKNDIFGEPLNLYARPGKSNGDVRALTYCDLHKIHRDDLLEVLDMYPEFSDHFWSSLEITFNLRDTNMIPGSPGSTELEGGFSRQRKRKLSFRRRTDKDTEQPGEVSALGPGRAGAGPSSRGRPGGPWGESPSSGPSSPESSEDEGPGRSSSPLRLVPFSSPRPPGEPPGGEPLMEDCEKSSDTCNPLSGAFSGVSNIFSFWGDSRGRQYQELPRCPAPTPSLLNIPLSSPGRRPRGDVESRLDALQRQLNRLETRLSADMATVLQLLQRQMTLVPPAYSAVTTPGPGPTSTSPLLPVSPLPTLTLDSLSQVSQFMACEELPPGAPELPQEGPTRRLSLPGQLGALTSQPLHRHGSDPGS
Experimental: (C) Summary of dose-response (mean ± S.E., n = 5). […] (F) Summary of dose−response (mean ± S.E., n = 6).
HEK293 cells stably expressing human Kv11.1 (hERG) were cultured in 96-well plates. After 48 h, the cells were incubated at 28 °C for 4 h to increase the membrane expression of hERG. The culture medium was replaced with a 80 μL/well of FluxOR (Invitrogen, Waltham, MA, USA) loading buffer and incubated for 1 h at 37 °C in the dark. After removing the loading buffer, 100 μL of assay buffer was added to each well. […] FluxOR fluorescence (excitation/emission: 490/525 nm) was recorded for 4 s before the addition of 20 μL of stimulus buffer containing thallium ions, and the fluorescence was recorded. FluxOR fluorescence was recorded and analyzed using the FLUOstar Omega microplate reader (BMG Labtech, Ortenberg, Germany) and the MARS Data Analysis Software (BMG Labtech, Ortenberg, Germany). All buffers were prepared according to the manufacturer’s instructions.

hERG = details: 10 μM, Xenopus oocytes overexpressed with hERG; cited from earlier work
[2] = test system: calcium-activated chloride currents in calf pulmonary artery endothelial (CPAE) cells; details: cited from earlier work

CCCCC1(C2CCCC2)Cc2cc(OCCCC(=O)O)c(Cl)c(Cl)c2C1=O (stereo not drawn) [DCPIB, 4-(2-butyl-6,7-dichlor-2-cyclopentylindan-1-on-5-yl) oxobutyric acid]
effect on cell viability (NIH-3T3 cells): significantly reduced cell viability | effect on ATP-induced intracellular calcium increase [1]: significantly affected; also recorded: strongly blocked; also recorded: potently blocked; also recorded: potently inhibited | effect on Eact-activated ANO1 chloride current (ANO1; 10 μM): increased | effect on Eact-activated ANO1 chloride current (ANO1; 100 μM): almost completely inhibited | IC50 (human CFTR): 71.7 µM | effect on hERG K+ channel activity (hERG K+ channel; 10 μM): significantly blocked | IC50 (hERG K+ channel; thallium flux, HEK293T cells expressing hERG, n = 6): 11.4 µM | effect on hERG (hERG): did not inhibit | effect on calcium-activated chloride currents [2]: did not affect
